Patent publication US20240108004A1, “METHOD FOR CONTROLLING INSECTS IN CROP PLANTS, SEEDS AND COMPOSITION” (Nippon Soda Co., Ltd., priority 2021, published 2024)

Key:
[1] = system: wire worm (Agriotes sp.) larvae; experiment: Efficacy test of corn seed treatment against Agriotes sp.; assay type: in vivo; settings: corn seeds coated, 42 days; for Healthy stock ratio: 50 g compound per 50,000 seeds, 12 larvae per 12-seed container, outdoors
Description: Efficacy test of corn seed treatment against Agriotes sp.
(§1) The compound (1) (30 parts), tristyryl-based surfactant (6.0 parts), dioctylsulfosuccinate metal salt (1.5 parts), silicone-based defoamer (1.2 parts), xanthan gum (0.2 parts), 1,2-benzisothiazolin-3-one (0.1 parts), propylene glycol (5.0 parts), and water (56 parts) were mixed to prepare a reagent solution.
Corn seeds were coated with the reagent solution so that the treatment amount of the compound (1) was 50 g per 50,000 seeds.
Further, corn seeds were similarly coated with tefluthrin as a control agent so that the treatment amount was 10 g per 50,000 seeds.
The treated seeds were planted in a 12-seed container and inoculated with 12 wire worm (Agriotes sp.) larvae. The container was placed outdoors, and 42 days later, the number of healthy stocks and the number of damaged stocks were investigated to determine the efficacy. The test was repeated 4 times.
The healthy stock ratio was calculated using the following formula.
Healthy stock ratio (%)=100×(number of healthy stocks/number of seeds)

Phyllotreta striolata = experiment: Efficacy test of rape seed treatment against Phyllotreta striolata; assay type: in vivo; settings: rape seeds coated, 10 g per 100 kg of seeds; inoculated 14 days after planting; 6 days after releasing the insects; 25° C., humidity 65%
Description: Efficacy test of rape seed treatment against Phyllotreta striolata
as §1, with “(I)” for “(1)”
Rape seeds were coated with the reagent solution so that the treatment amount of the compound (I) was 10 g per 100 kg of seeds.
The treated seeds were planted in a 10-seed pot and raised in a greenhouse for 14 days. After that, each pot was inoculated with 5 Phyllotreta striolata. The pots were stored in a constant temperature room at a temperature of 25° C. and at a humidity of 65%.
The life/death determination was made 6 days after releasing the insects, and the insecticidal rate was calculated by the following formula. The test was repeated 3 times.
Insecticidal rate (%)=(number of dead insects/number of test insects)×100

Row | SMILES | Healthy stock ratio [1] | Insecticidal rate (Phyllotreta striolata) | Healthy stock ratio ([1]; unit not given) | healthy stock rate ([1]; control agent, 10 g per 50,000 seeds)
1 | CCS(=O)(=O)c1cc(C2CC2)cnc1-c1ncc(C=C(Cl)C(F)(F)F)n1C [formula (II)] | 83.3% | 100% | – | –
2 | CCS(=O)(=O)c1cc(C2CC2)cnc1-c1ncc(C(F)C(F)(C(F)(F)F)C(F)(F)F)n1C (centres unmarked) [formula (III)] | – | 100% | 81.3 | –
3 | Cc1c(F)c(F)c(COC(=O)[C@@H]2[C@H](/C=C(\Cl)C(F)(F)F)C2(C)C)c(F)c1F (racemic) [tefluthrin, reference compound] | – | – | – | 62.5%
